#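 Test compounds were applied to cells in 96-well plates for 48 hours at 5 doses. Definition used: TGI = concentration required for complete inhibition of growth.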
# Experiments:
# Assay in all cases: NCI-60 cell line screen, 48 h
# 786-0 renal = test system: 786-0 renal
# A498 renal = test system: A498 renal
# A549 NSCLC = test system: A549 NSCLC
# ACHN renal = test system: ACHN renal
# BT-549 breast = test system: BT-549 breast
# CAKI-1 renal = test system: CAKI-1 renal
# CCRF-CEM leukemia = test system: CCRF-CEM leukemia
# COLO 205 colon = test system: COLO 205 colon
# DU-145 prostate = test system: DU-145 prostate
# EKVX NSCLC = test system: EKVX NSCLC
# HCC-2998 colon = test system: HCC-2998 colon
# HCT-116 colon = test system: HCT-116 colon
# HCT-15 colon = test system: HCT-15 colon
# HL-60(TB) leukemia = test system: HL-60(TB) leukemia
# HOP-62 NSCLC = test system: HOP-62 NSCLC
# HOP-92 NSCLC = test system: HOP-92 NSCLC
# HS 578T breast = test system: HS 578T breast
# HT29 colon = test system: HT29 colon
# IGROV1 ovarian = test system: IGROV1 ovarian
# K-562 leukemia = test system: K-562 leukemia
# KM12 colon = test system: KM12 colon
# LOX IMVI melanoma = test system: LOX IMVI melanoma
# M14 melanoma = test system: M14 melanoma
# MALME-3M melanoma = test system: MALME-3M melanoma
# MCF7 breast = test system: MCF7 breast
# MDA-MB-231 breast = test system: MDA-MB-231 breast
# MDA-MB-435 = test system: MDA-MB-435
# MDA-N = test system: MDA-N
# MOLT-4 leukemia = test system: MOLT-4 leukemia
# NCI-H226 lung = test system: NCI-H226 lung
# NCI-H23 lung = test system: NCI-H23 lung
# NCI-H460 lung = test system: NCI-H460 lung
# NCI-H522 lung = test system: NCI-H522 lung
# OVCAR-3 ovarian = test system: OVCAR-3 ovarian
# OVCAR-4 ovarian = test system: OVCAR-4 ovarian
# OVCAR-5 ovarian = test system: OVCAR-5 ovarian
# OVCAR-8 ovarian = test system: OVCAR-8 ovarian
# PC-3 prostate = test system: PC-3 prostate
# RPMI-8226 leukemia = test system: RPMI-8226 leukemia
# RXF 393 renal = test system: RXF 393 renal
# SF-268 CNS = test system: SF-268 CNS
# SF-295 CNS = test system: SF-295 CNS
# SF-539 CNS = test system: SF-539 CNS
# SK-MEL-2 melanoma = test system: SK-MEL-2 melanoma
# SK-MEL-28 melanoma = test system: SK-MEL-28 melanoma
# SK-MEL-5 melanoma = test system: SK-MEL-5 melanoma
# SK-OV-3 ovarian = test system: SK-OV-3 ovarian
# SN12C renal = test system: SN12C renal
# SNB-19 CNS = test system: SNB-19 CNS
# SNB-75 CNS = test system: SNB-75 CNS
# SR leukemia = test system: SR leukemia
# SW-620 colon = test system: SW-620 colon
# T-47D breast = test system: T-47D breast
# TK-10 renal = test system: TK-10 renal
# U251 CNS = test system: U251 CNS
# UACC-257 melanoma = test system: UACC-257 melanoma
# UACC-62 melanoma = test system: UACC-62 melanoma
# UO-31 renal = test system: UO-31 renal
smiles,measurement,setting,value
CC(C)c1ccc(/C=C2\N=C(c3ccc([N+](=O)[O-])cc3)OC2=O)cc1,TGI,786-0 renal,> 100 µM
same,TGI,A498 renal,> 100 µM
same,TGI,A549 NSCLC,> 100 µM
same,TGI,ACHN renal,> 100 µM
same,TGI,BT-549 breast,> 100 µM
same,TGI,CAKI-1 renal,> 100 µM
same,TGI,CCRF-CEM leukemia,> 100 µM
same,TGI,COLO 205 colon,> 100 µM
same,TGI,DU-145 prostate,> 100 µM
same,TGI,EKVX NSCLC,> 100 µM
same,TGI,HCC-2998 colon,> 100 µM
same,TGI,HCT-116 colon,> 100 µM
same,TGI,HCT-15 colon,> 100 µM
same,TGI,HL-60(TB) leukemia,> 100 µM
same,TGI,HOP-62 NSCLC,> 100 µM
same,TGI,HOP-92 NSCLC,> 100 µM
same,TGI,HS 578T breast,> 100 µM
same,TGI,HT29 colon,> 100 µM
same,TGI,IGROV1 ovarian,> 100 µM
same,TGI,K-562 leukemia,> 100 µM
same,TGI,KM12 colon,> 100 µM
same,TGI,LOX IMVI melanoma,> 100 µM
same,TGI,M14 melanoma,> 100 µM
same,TGI,MALME-3M melanoma,> 100 µM
same,TGI,MCF7 breast,> 100 µM
same,TGI,MDA-MB-231 breast,> 100 µM
same,TGI,MDA-MB-435,> 100 µM
same,TGI,MDA-N,> 100 µM
same,TGI,MOLT-4 leukemia,> 100 µM
same,TGI,NCI-H226 lung,> 100 µM
same,TGI,NCI-H23 lung,> 100 µM
same,TGI,NCI-H460 lung,> 100 µM
same,TGI,NCI-H522 lung,> 100 µM
same,TGI,OVCAR-3 ovarian,> 100 µM
same,TGI,OVCAR-4 ovarian,> 100 µM
same,TGI,OVCAR-5 ovarian,> 100 µM
same,TGI,OVCAR-8 ovarian,> 100 µM
same,TGI,PC-3 prostate,> 100 µM
same,TGI,RPMI-8226 leukemia,> 100 µM
same,TGI,RXF 393 renal,> 100 µM
same,TGI,SF-268 CNS,> 100 µM
same,TGI,SF-295 CNS,> 100 µM
same,TGI,SF-539 CNS,> 100 µM
same,TGI,SK-MEL-2 melanoma,> 100 µM
same,TGI,SK-MEL-28 melanoma,> 100 µM
same,TGI,SK-MEL-5 melanoma,> 100 µM
same,TGI,SK-OV-3 ovarian,> 100 µM
same,TGI,SN12C renal,> 100 µM
same,TGI,SNB-19 CNS,> 100 µM
same,TGI,SNB-75 CNS,> 100 µM
same,TGI,SR leukemia,> 100 µM
same,TGI,SW-620 colon,> 100 µM
same,TGI,T-47D breast,> 100 µM
same,TGI,TK-10 renal,> 100 µM
same,TGI,U251 CNS,> 100 µM
same,TGI,UACC-257 melanoma,> 100 µM
same,TGI,UACC-62 melanoma,> 100 µM
C=C1C(=O)OC2/C=C(/CO)C3(O)CC(O)C(C)(CC(OC(=O)/C(C)=C/C)C12)O3 (stereo not given),TGI,786-0 renal,52.3 µM
same,TGI,A498 renal,50.2 µM
same,TGI,A549 NSCLC,> 74.6 µM
same,TGI,ACHN renal,25 µM
same,TGI,BT-549 breast,18.3 µM
same,TGI,CAKI-1 renal,11.6 µM
same,TGI,CCRF-CEM leukemia,> 24.6 µM
same,TGI,COLO 205 colon,14.7 µM
same,TGI,DU-145 prostate,41.4 µM
same,TGI,EKVX NSCLC,48.5 µM
same,TGI,HCC-2998 colon,29 µM
same,TGI,HCT-116 colon,> 44.7 µM
same,TGI,HCT-15 colon,31.6 µM
same,TGI,HL-60(TB) leukemia,> 23 µM
same,TGI,HOP-62 NSCLC,> 100 µM
same,TGI,HOP-92 NSCLC,30.6 µM
same,TGI,HS 578T breast,> 100 µM
same,TGI,HT29 colon,25 µM
same,TGI,IGROV1 ovarian,43.2 µM
same,TGI,K-562 leukemia,> 100 µM
same,TGI,KM12 colon,42 µM
same,TGI,LOX IMVI melanoma,25.9 µM
same,TGI,M14 melanoma,> 58.3 µM
same,TGI,MALME-3M melanoma,29.8 µM
same,TGI,MCF7 breast,23.9 µM
same,TGI,MDA-MB-231 breast,34.6 µM
same,TGI,MDA-MB-435,> 57.1 µM
same,TGI,MDA-N,> 61 µM
same,TGI,MOLT-4 leukemia,9.95 µM
same,TGI,NCI-H226 lung,51.5 µM
same,TGI,NCI-H23 lung,42.9 µM
same,TGI,NCI-H460 lung,48.9 µM
same,TGI,NCI-H522 lung,7.32 µM
same,TGI,OVCAR-3 ovarian,> 67.8 µM
same,TGI,OVCAR-4 ovarian,> 62.9 µM
same,TGI,OVCAR-5 ovarian,63.5 µM
same,TGI,OVCAR-8 ovarian,45.2 µM
same,TGI,PC-3 prostate,83.9 µM
same,TGI,RPMI-8226 leukemia,7.5 µM
same,TGI,RXF 393 renal,12.6 µM
same,TGI,SF-268 CNS,> 59.9 µM
same,TGI,SF-295 CNS,> 73 µM
same,TGI,SF-539 CNS,61.4 µM
same,TGI,SK-MEL-2 melanoma,> 66.1 µM
same,TGI,SK-MEL-28 melanoma,49.5 µM
same,TGI,SK-MEL-5 melanoma,54.6 µM
same,TGI,SK-OV-3 ovarian,> 61.7 µM
same,TGI,SN12C renal,32.9 µM
same,TGI,SNB-19 CNS,> 100 µM
same,TGI,SNB-75 CNS,> 100 µM
same,TGI,SR leukemia,> 26.1 µM
same,TGI,SW-620 colon,22.3 µM
same,TGI,T-47D breast,39.9 µM
same,TGI,TK-10 renal,32.1 µM
same,TGI,U251 CNS,48.7 µM
same,TGI,UACC-257 melanoma,39 µM
same,TGI,UACC-62 melanoma,21 µM
same,TGI,UO-31 renal,> 67.2 µM

# Reference: PubChem BioAssay (NCI)
